Test results as given in patent US12077503B2, “Substituted cyclic amides and their use as herbicides” (FMC CORPORATION, priority 2015, dated 2024).

Columns and labels:
Assay type in all cases: in vivo
[1] = system: wheat (Triticum aestivum); experiment: Test A postemergence; conditions: Triticum aestivum, post-emergence, 240 h, Postemergence, 31 g ai/ha; 0 is no effect, 100 is complete control; read-out: Wheat plant response rating (0 to 100 scale)
Procedure, shortened: (§1)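 Preemergence directed soil spray on seeded pots, or postemergence application to plants 2–10 cm, one- to two-leaf. Solvent mixture non-phytotoxic, with surfactant. Scored ~10 d later, visually, 0–100 vs untreated.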

[2] = system: giant foxtail (Setaria faberii); experiment: Test A postemergence; conditions: Setaria faberi, post-emergence, 240 h, read-out: Foxtail, Giant plant response rating (0 to 100 scale)
Procedure, shortened: as §1

[3] = system: Galium (catchweed bedstraw, Galium aparine); experiment: Test A postemergence; conditions: Galium, post-emergence, 240 h, read-out: Galium plant response rating (0 to 100 scale)
Procedure, shortened: as §1

[4] = system: ragweed (common ragweed, Ambrosia elatior); experiment: Test A postemergence; conditions: Ambrosia artemisiifolia, post-emergence, 240 h, read-out: Ragweed plant response rating (0 to 100 scale)
Procedure, shortened: as §1

[5] = system: pigweed (Amaranthus retroflexus); experiment: Test A postemergence; conditions: Amaranthus retroflexus, post-emergence, 240 h, read-out: Pigweed plant response rating (0 to 100 scale)
Procedure, shortened: as §1

Kochia (Kochia scoparia) [6] = experiment: Test A postemergence; conditions: Bassia scoparia, post-emergence, 240 h, read-out: Kochia plant response rating (0 to 100 scale)
Procedure, shortened: as §1

[7] = system: ryegrass, Italian (Italian ryegrass, Lolium multiflorum); experiment: Test A postemergence; conditions: Lolium multiflorum, post-emergence, 240 h, read-out: Ryegrass, Italian plant response rating (0 to 100 scale)
Procedure, shortened: as §1

[8] = system: barnyardgrass (Echinochloa crus-galli); experiment: Test A postemergence; conditions: Echinochloa crus-galli, post-emergence, 240 h, read-out: Barnyardgrass plant response rating (0 to 100 scale)
Procedure, shortened: as §1

corn (Zea mays) = experiment: Test A postemergence; conditions: Zea mays, post-emergence, 240 h, read-out: Corn plant response rating (0 to 100 scale)
Procedure, shortened: as §1

[9] = system: blackgrass (Alopecurus myosuroides); experiment: Test A postemergence; conditions: Alopecurus myosuroides, post-emergence, 240 h, read-out: Blackgrass plant response rating (0 to 100 scale)
Procedure, shortened: as §1

[10] = system: ducksalad (Heteranthera limosa); experiment: Test B flooded paddy test; conditions: Heteranthera limosa, 250 g ai/ha, Flood; 0 to 100 scale where 0 is no effect and 100 is complete control; read-out: Ducksalad plant response rating
Procedure, shortened: (§2)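 2-leaf plants; pots flooded 3 cm over soil; cpd added to paddy water; depth held; greenhouse 13–15 d; visual rating vs controls, 0 = no effect, 100 = complete control.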

[11] = system: sedge, umbrella (small-flower umbrella sedge, Cyperus difformis); experiment: Test B flooded paddy test; conditions: Cyperus difformis, 250 g ai/ha, Flood; 0 to 100 scale where 0 is no effect and 100 is complete control; read-out: Sedge, Umbrella plant response rating
Procedure, shortened: as §2

rice (Oryra sativa) = experiment: Test B flooded paddy test; conditions: Oryza sativa, 250 g ai/ha, Flood; 0 to 100 scale where 0 is no effect and 100 is complete control; read-out: Rice plant response rating
Procedure, shortened: as §2

[12] = system: barnyardgrass (Echinochloa crus-galli); experiment: Test B flooded paddy test; conditions: Echinochloa crus-galli, 250 g ai/ha, Flood; 0 to 100 scale where 0 is no effect and 100 is complete control; read-out: Barnyardgrass plant response rating
Procedure, shortened: as §2

[13] = system: giant foxtail (Setaria faberii); experiment: Test A preemergence; conditions: Setaria faberi, pre-emergence, 240 h, 0 to 100 scale where 0 is no effect and 100 is complete control, read-out: Foxtail, Giant plant response rating
Procedure, shortened: as §1

[14] = system: ragweed (common ragweed, Ambrosia elatior); experiment: Test A preemergence; conditions: Ambrosia artemisiifolia, pre-emergence, 240 h, 0 to 100 scale where 0 is no effect and 100 is complete control, read-out: Ragweed plant response rating
Procedure, shortened: as §1

[15] = system: pigweed (Amaranthus retroflexus); experiment: Test A preemergence; conditions: Amaranthus retroflexus, pre-emergence, 240 h, 0 to 100 scale where 0 is no effect and 100 is complete control, read-out: Pigweed plant response rating
Kochia (Kochia scoparia) [16] = experiment: Test A preemergence; conditions: Bassia scoparia, pre-emergence, 240 h, 0 to 100 scale where 0 is no effect and 100 is complete control, read-out: Kochia plant response rating
Procedure, shortened: as §1

[17] = system: ryegrass, Italian (Italian ryegrass, Lolium multiflorum); experiment: Test A preemergence; conditions: Lolium multiflorum, pre-emergence, 240 h, 0 to 100 scale where 0 is no effect and 100 is complete control, read-out: Ryegrass, Italian plant response rating
Procedure, shortened: as §1

[18] = system: barnyardgrass (Echinochloa crus-galli); experiment: Test A preemergence; conditions: Echinochloa crus-galli, pre-emergence, 240 h, 0 to 100 scale where 0 is no effect and 100 is complete control, read-out: Barnyardgrass plant response rating
Procedure, shortened: as §1

[19] = 125 g ai/ha, postemergence, visual injury vs untreated controls after approx. 10 d, 0 = no effect, 100 = complete control
[20] = Postemergence, 31 g ai/ha, 0 is no effect, 100 is complete control
[21] = 125 g ai/ha, preemergence, visual injury rating, approximately 10 d

Structure (SMILES): CN1C[C@H](c2ccc(Cl)c(F)c2)[C@@H](C(=O)Nc2ccc(F)c(F)c2F)C1=O [Compound 1266]
- plant injury at 31 g/ha [1]: 0%
- pest or weed control at 125 g/ha [2, 19]: 80%
- pest or weed control at 31 g/ha [2, 20]: 80%
- pest or weed control at 125 g/ha [3, 19]: 60%
- pest or weed control at 31 g/ha [3, 20]: 50%
- pest or weed control at 125 g/ha [4, 19]: 50%
- pest or weed control at 31 g/ha [4, 20]: 0%
- pest or weed control at 125 g/ha [5, 19]: 70%
- pest or weed control at 31 g/ha [5, 20]: 20%
- pest or weed control at 125 g/ha (Kochia (Kochia scoparia) [6]; [19]): 70%
- pest or weed control at 31 g/ha (Kochia (Kochia scoparia) [6]; [20]): 30%
- pest or weed control at 125 g/ha [7, 19]: 70%
- pest or weed control at 31 g/ha [7, 20]: 20%
- pest or weed control at 125 g/ha [8, 19]: 90%
- pest or weed control at 31 g/ha [8, 20]: 90%
- plant injury at 125 g/ha (corn (Zea mays); [19]): 90%
- plant injury at 31 g/ha (corn (Zea mays); [20]): 90%
- pest or weed control at 125 g/ha [9, 19]: 60%
- pest or weed control at 31 g/ha [9, 20]: 20%
- pest or weed control at 250 g/ha [10]: 100%
- pest or weed control at 250 g/ha [11]: 0%
- pest or weed control at 250 g/ha (rice (Oryra sativa)): 50%
- pest or weed control at 250 g/ha [12]: 60%
- pest or weed control at 31 g/ha ([13]; 31 g ai/ha, Preemergence): 90%
- pest or weed control at 125 g/ha [13, 21]: 90%
- pest or weed control at 31 g/ha ([14]; 31 g ai/ha, Preemergence): 20%
- pest or weed control at 125 g/ha [14, 21]: 60%
- pest or weed control at 31 g/ha ([15]; 31 g ai/ha, Preemergence): 20%
- pest or weed control at 125 g/ha [15, 21]: 80%
- pest or weed control at 31 g/ha (Kochia (Kochia scoparia) [16]; 31 g ai/ha, Preemergence): 40%
- pest or weed control at 125 g/ha (Kochia (Kochia scoparia) [16]; [21]): 80%
- pest or weed control at 31 g/ha ([17]; 31 g ai/ha, Preemergence): 0%
- pest or weed control at 125 g/ha [17, 21]: 40%
- pest or weed control at 31 g/ha ([18]; 31 g ai/ha, Preemergence): 80%
- pest or weed control at 125 g/ha [18, 21]: 90%
